Consider two molecules from patent EP4813383A1, “USE OF TAFAMIDIS AND PHARMACEUTICALLY ACCEPTABLE SALT THEREOF IN PREVENTION, ALLEVIATION, OR TREATMENT OF DISEASES ASSOCIATED WITH HIF-2a” (Huaya Jiyuan (Shenzhen) Pharmaceutical Co., Ltd., priority 2024, dated 2025).

In data set [1] the test system is 5/6 nephrectomy (5/6Nx) rat model. Nature of the data set: 5/6 nephrectomy (5/6Nx) rat model. It is filed as in vivo, Male Sprague Dawley (SD) rats. From the text: Male Sprague Dawley (SD) rats are used to establish a renal injury-induced anemia model through 5/6 nephrectomy surgery to investigate the erythropoiesis-promoting effect of tafamidis. After a one-week acclimation period, the rats are anesthetized with isoflurane, and the left kidney is exposed through a midline abdominal incision. Ligatures are placed at the upper one-third and lower one-third positions of the kidney, and the corresponding renal tissues outside the ligatures are excised. After a one-week recovery period, the right kidney is excised, with eight rats assigned to the nephrectomy group and the remaining eight rats serving as a non-operated normal control group. At week 4, renal dysfunction in the operated rats is confirmed by assessing serum urea and creatinine levels. Tafamidis and roxadustat are dissolved in a vehicle containing 10% dimethyl sulfoxide (DMSO), 30% polyethylene glycol 400 (PEG 400), 5% Tween-80, 1% hydrochloric acid (113.3 mM), 9% 0.1 N sodium hydroxide, and 45% normal saline. […] Starting from week 6, the tafamidis treatment group and the roxadustat group are orally administered the corresponding compound at 10 mg/kg daily (10 mg orally per day per 1 kg body weight of rat) for four weeks, while the sham-operated group and the 5/6 nephrectomy model (5/6Nx) rats are administered the vehicle based on the same dosing regimen. Hematological analysis is performed weekly, and urine samples are collected on the day following the final treatment, so as to determine urinary total protein (UTP) and urinary creatinine (UCREA). Hematological analysis is performed using the Sysmex Europe XN-2000 automated hematology analyzer, and urinalysis is performed using the Cobas C501 automated analyzer, both using commercially available kits in accordance with the manufacturers' instructions. After sample collection, the rats are euthanized. Statistical significance is determined by one-way analysis of variance (ANOVA), and then a Dunnett's test is performed for comparison with the 5/6Nx group (*P < 0.05, **P < 0.01, ***P < 0.001).

The next data set addresses T1, HIF-2α (Homo sapiens, UniProt Q99814).
T1 construct: 786-O is a renal carcinoma cell line that predominantly expresses HIF-2α and lacks functional HIF-1α; endogenous in cells; host or cells: 786-O cells stably carrying an HRE-driven luciferase reporter
The data set can be described thus: Luciferase reporter gene assay (HRE-driven luciferase in stably transfected 786-O cells). It counts as cell-based. The source says: Experimental principles: 786-O is a renal carcinoma cell line that predominantly expresses HIF-2α and lacks functional HIF-1α. This characteristic makes 786-O cells an ideal model for studying HIF-2α transcriptional activity and related signaling pathways. In the luciferase reporter gene assay, a 786-O monoclonal cell line that stably expresses hypoxia response element (HRE)-driven luciferase (Luc) activity is obtained through puromycin selection. The HIF-2α agonist promotes dimerization of HIF-2α and HIF-β, and activates an HRE promoter. By measuring fluorescence intensity, luciferase activity can be determined, thereby assessing the ability of the HIF-2α agonist to promote transcription.
Experimental method: A total of 6000 stably transfected 786-O cells stably containing HRE and Luc sequences are seeded in each well of a 96-well plate, and 100 µL of RPMI-1640 culture medium containing 10% fetal bovine serum is added to each well. After 24 hours, a compound at a corresponding concentration is added to each well. A blank group is set as a control. Only a DMSO solvent is added in the well of the blank group. For initial compound screening, both tafamidis and tafamidis meglumine are tested at two concentrations: 2 µM and 20 µM. For concentration-gradient determination, each concentration is tested in triplicate. After co-incubation for 24 hours, the culture medium is discarded, and 20 µL of firefly luciferase reporter gene cell lysis buffer (RG126M, Beyotime) is added to each well. The 96-well plate is shaken on a microplate shaker for 10 minutes. After shaking, 10 µL of lysate is transferred into a white opaque plate, and then 10 µL of Steady-Lumi™ firefly luciferase assay reagent (RG058S, Beyotime) is added to each well. Finally, luminescence is measured using a microplate reader (Agilent Synergy Neo2). E20 represents the effect of the compound at a 20 µM concentration, and is calculated as: E20 = fluorescence value of the 20 µM well ÷ fluorescence value of the blank control × 100%. E2 represents the effect of the compound at a 2 µM concentration, and is calculated as: E2 = fluorescence value of the 2 µM well ÷ fluorescence value of the blank control × 100%. EC50 is the compound concentration at which the agonistic efficacy is increased by 50% relative to the blank control. The agonistic efficacy of a compound is determined by calculating the concentration (EC50) required to achieve a 50% increase in the fluorescence activity relative to the blank control and a maximum activation percentage (Emax). The maximum activation percentage (Emax) of an agonist refers to a ratio, expressed as a percentage, of the fluorescence value corresponding to the maximal effect (observed maximal response) induced when the agonist concentration reaches receptor-binding saturation in a particular receptor system, to the fluorescence value of the receptor system in the absence of agonist. In this experiment, Vyndaqel is directly used in place of tafamidis meglumine.

In data set [2] the test system is aristolochic acid-induced zebrafish model. Nature of the data set: Aristolochic acid-induced zebrafish chronic kidney disease model: renal edema incidence. It is filed as in vivo, Wild-type AB strain zebrafish. The conditions noted are these: 1 µM in aqueous solution, 30 hours; model group 100%. The method, then:
Wild-type AB strain zebrafish at 2 days post-fertilization (2 dpf) are randomly selected and placed in a 6-well plate, with 30 zebrafish treated in each well (treatment group). Other than the normal control group, all treatment groups are exposed to aristolochic acid in aqueous solution to establish a zebrafish renal anemia model. After treatment at 28 °C for 18 hours, a normal control group and a model control group are set up simultaneously. Tafamidis samples are administered in aqueous solution to the treatment groups separately (at concentrations of 20 µM, 10 µM, and 1 µM separately, each concentration being tested in triplicate). Water is administered to the normal control group and the model control group correspondingly, with a volume of 3 mL per well.

Where [3] appears, read: 10 mg/kg daily oral for four weeks, urine on the day after final treatment.

T1 sequence (Q99814 whole entry): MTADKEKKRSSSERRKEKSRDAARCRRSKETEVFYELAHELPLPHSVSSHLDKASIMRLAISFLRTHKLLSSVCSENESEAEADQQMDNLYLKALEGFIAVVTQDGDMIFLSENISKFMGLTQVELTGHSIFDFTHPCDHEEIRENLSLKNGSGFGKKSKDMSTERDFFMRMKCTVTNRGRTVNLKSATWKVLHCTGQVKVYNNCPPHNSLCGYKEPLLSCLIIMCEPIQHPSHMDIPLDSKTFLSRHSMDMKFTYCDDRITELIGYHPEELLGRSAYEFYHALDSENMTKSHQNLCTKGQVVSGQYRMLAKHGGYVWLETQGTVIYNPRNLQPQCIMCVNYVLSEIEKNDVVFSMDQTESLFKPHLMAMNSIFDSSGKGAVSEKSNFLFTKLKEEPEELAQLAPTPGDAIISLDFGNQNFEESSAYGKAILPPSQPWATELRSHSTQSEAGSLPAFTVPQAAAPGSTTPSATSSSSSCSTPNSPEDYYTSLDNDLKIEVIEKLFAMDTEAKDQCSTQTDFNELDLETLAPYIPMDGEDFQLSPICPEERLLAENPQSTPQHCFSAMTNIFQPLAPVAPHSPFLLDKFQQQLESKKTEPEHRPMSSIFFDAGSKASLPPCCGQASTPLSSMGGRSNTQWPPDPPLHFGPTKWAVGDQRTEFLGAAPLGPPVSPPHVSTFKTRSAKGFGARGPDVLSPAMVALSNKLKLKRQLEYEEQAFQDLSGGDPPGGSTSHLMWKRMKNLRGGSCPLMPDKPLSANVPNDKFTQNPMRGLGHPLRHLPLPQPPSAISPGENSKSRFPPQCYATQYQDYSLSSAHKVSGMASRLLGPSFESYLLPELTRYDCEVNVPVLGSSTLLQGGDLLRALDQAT
T1 sequence (P27540 whole entry partner): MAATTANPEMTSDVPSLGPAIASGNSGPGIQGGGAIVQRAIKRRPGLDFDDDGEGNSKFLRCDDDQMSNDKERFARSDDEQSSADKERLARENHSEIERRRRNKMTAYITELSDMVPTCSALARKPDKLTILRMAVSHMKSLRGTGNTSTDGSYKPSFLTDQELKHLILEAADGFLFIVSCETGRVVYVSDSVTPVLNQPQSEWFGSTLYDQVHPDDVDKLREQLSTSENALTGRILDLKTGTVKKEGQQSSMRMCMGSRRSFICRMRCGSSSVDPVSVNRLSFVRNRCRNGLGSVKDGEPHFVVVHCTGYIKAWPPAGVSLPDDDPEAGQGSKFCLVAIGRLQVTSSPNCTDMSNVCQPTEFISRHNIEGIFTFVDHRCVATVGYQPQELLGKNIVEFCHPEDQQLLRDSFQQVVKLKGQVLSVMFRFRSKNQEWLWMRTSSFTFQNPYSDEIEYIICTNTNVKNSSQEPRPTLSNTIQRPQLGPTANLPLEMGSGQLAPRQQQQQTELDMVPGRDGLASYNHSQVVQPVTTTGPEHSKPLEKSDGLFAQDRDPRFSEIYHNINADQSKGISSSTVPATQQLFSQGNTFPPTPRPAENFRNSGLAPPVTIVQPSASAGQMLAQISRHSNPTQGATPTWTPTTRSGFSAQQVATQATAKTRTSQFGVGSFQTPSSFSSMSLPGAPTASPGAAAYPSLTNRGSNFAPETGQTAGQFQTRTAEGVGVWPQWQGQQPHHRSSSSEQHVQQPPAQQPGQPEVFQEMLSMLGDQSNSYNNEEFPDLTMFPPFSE

`Cc1nc(C(=O)NCC(=O)O)c(O)c2ccc(Oc3ccccc3)cc12` [roxadustat]: the “UTP excretion levels, increase compared with the 5/6Nx group” value in data set [1] (10 mg/kg daily oral for four weeks, urine on the day after final treatment, p < 0.01) amounted to 3.3 fold. In addition, the “RBC levels (erythrocytosis)” value in data set [1] (10 mg/kg daily oral, day 14, against the physiological range of the healthy control group) is reported as “notable erythrocytosis”.

As to `O=C(O)c1ccc2nc(-c3cc(Cl)cc(Cl)c3)oc2c1` [tafamidis, 2-(3,5-dichlorophenyl)-1,3-benzoxazole-6-carboxylic acid], the “agonistic efficacy at a 2 µM concentration (E2)” value at HIF-2α (2 µM, 24 hours co-incubation, fluorescence value as % of blank control (DMSO)) came out at 142%. The “agonistic efficacy at a 20 µM concentration (E20)” value at HIF-2α (20 µM, 24 hours co-incubation, fluorescence value as % of blank control (DMSO)) is reported as 207%. The Emax on HIF-2α (786-0, read-out: Emax (maximum activation percentage), maximal response as % of fluorescence without agonist) stood at 225%. The EC50 at HIF-2α (concentration required for a 50% increase in fluorescence activity relative to the blank control, 24 hours, read-out: EC50) is 1110 nM. Moreover, in data set [1] (setting [3]), the UTP excretion levels result is “remain at baseline levels” and the “effect on UCREA” value is “essentially no effect”. Also, the “red blood cell (RBC) count” value in data set [1] (10 mg/kg daily oral, week 4, 5/6Nx group 7.7 ± 0.3 × 10^12, p < 0.05) was 8.2 ± 0.3 × 10^12 cells/L. The same molecule gave a renal edema incidence in data set [2] of 80%.

What is called Emax is the size of the effect at its maximum, as opposed to the concentration needed.
